In patent publication US10463710B2, “Short synthetic peptide for the treatment and/or prophylaxis of autoimmune and inflammatory disorders” (MacKay Memorial Hospital, priority 2015, dated 2019):
“Also recorded” adds a separate entry of the source. Ends that are not written are not given here.

Experiments:
in vitro = type: cell-based, murine; conditions: mouse
[1] = test system: Raw264.7 macrophage cells; assay: in vitro; type: cell-based, murine; conditions: Example 1 results

Molecule	viability at 24 h, 20 μM (in vitro; Raw264.7 cell viability)	bioactivity / inhibitory activity relative to 7-mer (in words) [1]	bioactivity / inhibitory activity relative to 7-mer (in words) ([1]; listed as 7-mer (D→N))	viability at 24 h, 20 μM (in vitro; Rar264.7 cell viability)
CC(=O)N[C@@H](Cc1ccccc1)C(=O)N[C@@H](CC(C)C)C(=O)N[C@@H](Cc1ccc(O)cc1)C(=O)N[C@@H](CCCNC(=N)N)C(=O)N[C@H](C(=O)N[C@@H](CCCNC(=N)N)C(=O)N[C@@H](CO)C(N)=O)C(C)C [7-mer (D→F), NH2-Phe-Leu-Tyr-Arg-Val-Arg-Ser-COOH]	61.9 ± 4.91%	could sustain 7-mer bioactivity, only partly; also recorded: relatively the same bioactivity that is similar to the 7-mer	–	–
CC(=O)N[C@@H](CC(C)C)C(=O)N[C@@H](CC(C)C)C(=O)N[C@@H](Cc1ccc(O)cc1)C(=O)N[C@@H](CCCNC(=N)N)C(=O)N[C@H](C(=O)N[C@@H](CCCNC(=N)N)C(=O)N[C@@H](CO)C(N)=O)C(C)C [7-mer (D→L), NH2-Leu-Leu-Tyr-Arg-Val-Arg-Ser-COOH]	57.6 ± 2.65%	could sustain 7-mer bioactivity, only partly; also recorded: relatively the same bioactivity that is similar to the 7-mer	–	–
CC(=O)N[C@H](C(=O)N[C@@H](CC(C)C)C(=O)N[C@@H](Cc1ccc(O)cc1)C(=O)N[C@@H](CCCNC(=N)N)C(=O)N[C@H](C(=O)N[C@@H](CCCNC(=N)N)C(=O)N[C@@H](CO)C(N)=O)C(C)C)C(C)C [7-mer (D→V), NH2-Val-Leu-Tyr-Arg-Val-Arg-Ser-COOH]	56.8 ± 3.53%	relatively the same bioactivity that is similar to the 7-mer	could sustain 7-mer bioactivity, only partly	–
CC(=O)N[C@@H](CC(=O)O)C(=O)N[C@@H](CC(C)C)C(=O)N[C@@H](Cc1ccc(O)cc1)C(=O)N[C@@H](CCCNC(=N)N)C(=O)N[C@H](C(=O)N[C@@H](CCC(N)=O)C(=O)N[C@@H](CO)C(N)=O)C(C)C [7-mer (R2→Q), NH2-Asp-Leu-Tyr-Arg-Val-Gln-Ser-COOH]	68.4 ± 1.25%	could sustain 7-mer bioactivity, only partly	–	–
CC(=O)N[C@@H](CC(=O)O)C(=O)N[C@@H](CC(C)C)C(=O)N[C@@H](Cc1ccc(O)cc1)C(=O)N[C@@H](CCCNC(=N)N)C(=O)N[C@@H](CC(C)C)C(=O)N[C@@H](CCCNC(=N)N)C(=O)N[C@@H](CO)C(N)=O [7-mer (V→L), NH2-Asp-Leu-Tyr-Arg-Leu-Arg-Ser-COOH]	61.1 ± 3.96%	could sustain 7-mer bioactivity, only partly; also recorded: relatively the same bioactivity that is similar to the 7-mer	–	–
CC(=O)N[C@H](CC(=O)O)C(=O)N[C@@H](CC(C)C)C(=O)N[C@@H](Cc1ccc(O)cc1)C(=O)N[C@@H](CCCNC(=N)N)C(=O)N[C@H](C(=O)N[C@@H](CCCNC(=N)N)C(=O)N[C@@H](CO)C(N)=O)C(C)C [7-mer DD, NH2-(D-Asp)-Leu-Tyr-Arg-Val-Arg-Ser-COOH]	–	–	–	52.1 ± 1.45%
CC(=O)N[C@@H](CC(=O)O)C(=O)N[C@H](CC(C)C)C(=O)N[C@@H](Cc1ccc(O)cc1)C(=O)N[C@@H](CCCNC(=N)N)C(=O)N[C@H](C(=O)N[C@@H](CCCNC(=N)N)C(=O)N[C@@H](CO)C(N)=O)C(C)C [7-mer DL, NH2-Asp-(D-Leu)-Tyr-Arg-Val-Arg-Ser-COOH]	–	lose its biological activity	–	101 ± 1.48%
CC(=O)N[C@@H](CC(=O)O)C(=O)N[C@@H](CC(C)C)C(=O)N[C@@H](Cc1ccc(O)cc1)C(=O)N[C@@H](CCCNC(=N)N)C(=O)N[C@H](C(=O)N[C@H](CCCNC(=N)N)C(=O)N[C@@H](CO)C(N)=O)C(C)C [7-mer DR2, NH2-Asp-(D-Leu)-Tyr-Arg-Val-(D-Arg)-Ser-COOH]	–	lose its biological activity	–	103 ± 2.51%
CC(=O)N[C@@H](CC(=O)O)C(=O)N[C@@H](CC(C)C)C(=O)N[C@@H](Cc1ccc(O)cc1)C(=O)N[C@H](CCCNC(=N)N)C(=O)N[C@H](C(=O)N[C@@H](CCCNC(=N)N)C(=O)N[C@@H](CO)C(N)=O)C(C)C [7-mer DR, NH2-Asp-Leu-Tyr-(D-Arg)-Val-Arg-Ser-COOH]	–	lose its biological activity	–	100 ± 2.58%
CC(=O)N[C@@H](CC(=O)O)C(=O)N[C@@H](CC(C)C)C(=O)N[C@@H](Cc1ccc(O)cc1)C(=O)N[C@@H](CCCNC(=N)N)C(=O)N[C@H](C(=O)N[C@@H](CCCNC(=N)N)C(=O)N[C@H](CO)C(N)=O)C(C)C [7-mer DS, NH2-Asp-Leu-Tyr-Arg-Val-Arg-(D-Ser)-COOH]	–	lose its biological activity	–	107 ± 2.23%
CC(=O)N[C@@H](CC(=O)O)C(=O)N[C@@H](CC(C)C)C(=O)N[C@@H](Cc1ccc(O)cc1)C(=O)N[C@@H](CCCNC(=N)N)C(=O)N[C@@H](C(=O)N[C@@H](CCCNC(=N)N)C(=O)N[C@@H](CO)C(N)=O)C(C)C [7-mer DV, NH2-Asp-Leu-Tyr-Arg-(D-Val)-Arg-Ser-COOH]	–	–	–	57.9 ± 6.2%
CC(=O)N[C@@H](CC(=O)O)C(=O)N[C@@H](CC(C)C)C(=O)N[C@H](Cc1ccc(O)cc1)C(=O)N[C@@H](CCCNC(=N)N)C(=O)N[C@H](C(=O)N[C@@H](CCCNC(=N)N)C(=O)N[C@@H](CO)C(N)=O)C(C)C [7-mer DY, NH2-Asp-Leu-(D-Tyr)-Arg-Val-Arg-Ser-COOH]	–	lose its biological activity	–	107.5 ± 0.63%
CC(=O)N[C@@H](CC(=O)O)C(=O)N[C@@H](CC(C)C)C(=O)N[C@@H](Cc1ccc(O)cc1)C(=O)N[C@@H](CCCNC(=N)N)C(=O)N[C@H](C(=O)N[C@@H](C)C(=O)N[C@@H](CO)C(N)=O)C(C)C [7-mer R2a, NH2-Asp-Leu-Tyr-Arg-Val-Ala-Ser-COOH]	94.6 ± 1.65%	–	–	–
CC(=O)N[C@@H](CC(=O)O)C(=O)N[C@@H](CC(C)C)C(=O)N[C@@H](Cc1ccc(O)cc1)C(=O)N[C@@H](C)C(=O)N[C@H](C(=O)N[C@@H](CCCNC(=N)N)C(=O)N[C@@H](CO)C(N)=O)C(C)C [7-mer Ra, NH2-Asp-Leu-Tyr-Ala-Val-Arg-Ser-COOH]	99.5 ± 1.51%	–	–	–
CC(=O)N[C@@H](CC(=O)O)C(=O)N[C@@H](CC(C)C)C(=O)N[C@@H](Cc1ccc(O)cc1)C(=O)N[C@@H](CCCNC(=N)N)C(=O)N[C@H](C(=O)N[C@@H](CCCNC(=N)N)C(=O)N[C@@H](C)C(N)=O)C(C)C [7-mer Sa, NH2-Asp-Leu-Tyr-Arg-Val-Arg-Ala-COOH]	93.1 ± 2.47%	–	–	–
CC(=O)N[C@@H](CC(=O)O)C(=O)N[C@@H](CC(C)C)C(=O)N[C@@H](Cc1ccc(O)cc1)C(=O)N[C@@H](CCCNC(=N)N)C(=O)N[C@@H](C)C(=O)N[C@@H](CCCNC(=N)N)C(=O)N[C@@H](CO)C(N)=O [7-mer Va, NH2-Asp-Leu-Tyr-Arg-Ala-Arg-Ser-COOH]	97.7 ± 0.6%	–	–	–
CC(=O)N[C@@H](CC(=O)O)C(=O)N[C@@H](CC(C)C)C(=O)N[C@@H](C)C(=O)N[C@@H](CCCNC(=N)N)C(=O)N[C@H](C(=O)N[C@@H](CCCNC(=N)N)C(=O)N[C@@H](CO)C(N)=O)C(C)C [7-mer Ya, NH2-Asp-Leu-Ala-Arg-Val-Arg-Ser-COOH]	97.6 ± 0.56%	–	–	–
NH2-Asp-Leu-Tyr-Arg-Val-Arg-COOH (DLYRVR; not fully specified (N-terminus, C-terminus); printed as NH2-Asp-Leu-Tyr-Arg-Val-Arg-COOH) [control peptide, serine residue of the 7-mer deleted, reference compound]	–	does not possess any biological function	–	–
